Reference: patent US6423752B1, “Indane dimer compounds with smooth muscle relaxing and/or mast cell stabilizing and/or anti-inflammatory activity” (Venantius Limited, priority 1995, dated 2002)
Counter-ions that a name gives are not always drawn. Like-named read-outs stand apart in the source and are kept apart here.

Legend:
mast cells = assay: Histamine release assay (compound 48/80 stimulated mast cells); assay type: cell-based, Wistar rats; settings: 2 × 10^−5 M, rat peritoneal mast cells; for inhibition at 20 µM: Rattus norvegicus, Mast cell, read-out: Percentage Inhibition of Histamine Release
Protocol: (§1) The compounds were assessed for their ability to stabilize mast cell membranes in vitro. Mast cells treated with the compounds and un-treated mast cells were stimulated to release histamine. A reduction in histamine release by the treated cells compared to the untreated cells indicates stabilisation of the membrane. The compounds were assessed for their ability to relax smooth muscle in vitro. Intestinal smooth muscle was stimulated to contract, using calcium chloride and subsequently treated with the compounds, relaxation of the contraction was measured for each compound. The effects of the compounds were also studied on relaxation of guinea-pig tracheal muscle. In the rat paw oedema test, the drugs were administered systemically prior to inducing inflammation by the injection of carageenan below the plantar aponeurosis of the hind paw. The volume of the paw was determined both before and after treatment as an index of oedema. In the mouse ear oedema test, the drugs were administered topically prior to inducing inflammation by the topical application of arachidonic acid. The width of the ear was determined both before and after treatment as an index of oedema.
The buffered salt solution (BSS) was prepared in advance (NaCl 137 mM; KCl 2.7 mM; MgCl2 1.0 mM; CaCl2 0.5 mM, NaH2PO4 0.4 mM; Glucose 5.6 mM; HEPES 10 mM). This was dispensed into test tubes and heated to 37° C., each test tube contained 4.5 ml BSS. The solvent blank was supplemented with 0.5% (v/v) dimethyl sulphoxide (DMSO) or 0.5% (v/v) distilled water (dH2O). The two positive controls were supplemented with 0.5% (v/v) dH2O/2×10^−5M disodium cromoglycate (DSCG) and 0.5% (v/v) DMSO/2×10^−5M DSCG. The test compounds' incubation tubes contained 2×10^−5M test compound/0.5% (v/v) DMSO. The basal release, maximum release and total histamine content incubation tubes contained no additions.
Female Wistar rats (200-300 g) were killed in an atmosphere of saturated CO2. Pre-warmed BSS (10 ml) was injected i.p. and the abdomen was massaged for 3 min. The BSS, with suspended mast cells and other cells, was aspirated following a mid-line incision. The aspirate was centrifuged for 5 min at 400 g and the supernatant removed. The cells were re-suspended in BSS, at 4° C., and centrifuged as before the cells were washed in this manner a total of three times. Following the final wash, the pelleted cells were stored at 4° C., for use as soon as possible.
The cells were re-suspended in 7 ml BSS. From this, 0.5 ml aliquots were transferred to each of the incubation tubes. After 10 min at 37° C. with gentle agitation, Compound 48/80 was added to a final concentration of […], in order to stimulate histamine release. The cell stimulation was stopped after 2 min by the addition of 0.5 ml ice cold BSS, the incubation tubes were transferred to an ice bath. The cell suspensions were centrifuged for 5 min at 400 g. The “total histamine content” tube was placed at 100° C. for 2 min prior to centrifugation. The supernatants were retained for histamine assay.
To 2 ml of supernatant from each tube was added 0.4 ml of 1M NaOH and 0.1 ml oPT (1% (w/v) in methanol). This was incubated at room temperature for 4 min. The reaction was stopped by the addition of 0.2 ml of 3M HCl. The supernatant from each incubation tube was assayed in duplicate and run simultaneously with a standard curve in the range 0-1000 ng/ml. The presence of the fluorescent product of the reaction was measured using a Shimazu RF-1501 spectrofluorophotometer set at λex=360 nm, λem=450 nm.
Each drug was tested on at least five animals (n=5). The results were expressed as a percentage of maximum, compound 48/80 induced, histamine release in the solvent blank sample. Each drug was compared to DSCG on the same tissues. The basal histamine release in untreated cells was noted, expressed as a percentage of the total histamine content of the cells in suspension. […]

ileum = assay: Smooth muscle effects: CaCl2 induced contractions of ileum; set-up: species or system Guinea pigs; settings: for inhibition at 3 µM / inhibition at 10 µM / inhibition at 0.3 µM / inhibition at 0.03 µM / inhibition at 1 µM / inhibition at 0.1 µM: Cavia porcellus, read-out: Percentage Inhibition of CaCl2 Induced Contractions
Protocol: as §1
(§2) Guinea pigs (350 g approx.), of either sex, were killed in an atmosphere of saturated CO2. The abdomen was opened by a mid-line incision and the small intestine was removed. The trachea was removed and sectioned between the cartilage rings, which were then split through.
(§3) Segments of ileum (1-1.5 cm) were suspended in a high potassium, no calcium Krebs buffer (NaCl 160.44 mM); KCl 45 mM; MgCl2 0.54 mM; NaH2PO4 0.89 mM; NaH2CO3 24.9 mM; Glucose 11.1 mM). Tracheal sections were suspended in normal Krebs buffer (NaCl […]; KCl 4.7 mM; CaCl2 2.5 mM; MgCl2 0.54 mM; NaH2PO4 0.89 mM; NaHCO3 24.9 mM; Glucose 11.1 mM). The solutions were maintained at 37° C. by a jacketed organ bath and gassed with 95% O2 and 5% CO2. The tissues were anchored by thread to the bottom of the organ bath and suspended from force displacement transducers under a resting tension of 1 g approx. in the case of ileum and 4 g approx. in the case of trachea. Isotonic contractions were recorded using a MacLab/4e system in conjunction with the Chart 3.3.1 software package. Surplus tissue was stored at 4° C. in Krebs buffer, for a maximum of 48 hours.
(§4) Four segments of tissue were suspended and observed concurrently. Contractions were initiated by the addition of 25 μl of 1M CaCl2 (a final concentration of 2.5 mM). The contractions stabilized with time, 10-15 min, and could be maintained for up to 45 min. from the addition of the CaCl2. The tracheal sections were allowed to develop spontaneous resting tension over a period of 30 mins.
Stock solutions of drug were prepared at 10^−3M in 50% (v/v) DMSO. These were diluted to give; 10^−4M in 5% (v/v) DMSO and 10^−5M in 0.5% (v/v) DMSO. In cases of poor solubility the 10^−3M stock was made up in higher concentrations of DMSO. Solvent ‘blank’ solutions were prepared containing 50%, 5% and 0.5% (v/v) DMSO (or as appropriate). […] A second cumulative dose-response assay was carried out using DMSO ‘blank’ solutions only.
(§5) Each drug was tested, in duplicate, on at least three different animals (n=3). The results were expressed as percentage inhibition of the CaCl2 induced contraction in the case of ideal tissue and percentage relaxation in the case of tracheal tissue, for each tissue, at each concentration of drug in DMSO. The effect of DMSO, for each tissue at each concentration, was subtracted from the effect of the drug in DMSO, to give the effect of the drug alone. A log dose vs. response curve was plotted for each drug using the mean and the standard error of the mean for the cumulated results.

trachea = assay: Smooth muscle effects: spontaneous tone of tracheal sections; set-up: species or system Guinea pigs; settings: Cavia porcellus, guinea pig trachea, percentage relaxation
Protocol: as §1, §2, §3, §4
Stock solutions of drug were prepared at 10^−3M in 50% (v/v) DMSO. These were diluted to give; 10^−4M in 5% (v/v) DMSO and 10^−5M in 0.5% (v/v) DMSO. In cases of poor solubility the 10^−3M stock was made up in higher concentrations of DMSO. Solvent ‘blank’ solutions were prepared containing 50%, 5% and 0.5% (v/v) DMSO (or as appropriate). A cumulative dose-response assay was carried out in the range 5×10^−8M to 10^−5M. A second cumulative dose-response assay was carried out using DMSO ‘blank’ solutions only.
as §5

[1] = 3 × 10^−6 M, guinea pig ileum, DMSO effect subtracted
[2] = 10^−5 M, guinea pig ileum, DMSO effect subtracted
[3] = 3 × 10^−7 M, guinea pig ileum, DMSO effect subtracted
[4] = 3 × 10^−8 M, guinea pig ileum, DMSO effect subtracted
[5] = 10^−6 M, guinea pig ileum, DMSO effect subtracted
[6] = 10^−7 M, guinea pig ileum, DMSO effect subtracted

SMILES: C=CCN(C1CCc2ccccc21)C1CC(=O)c2ccccc21 (centres unmarked) [5C6 BR]
- Percentage Inhibition of Histamine Release (mast cells): 78.84%
- inhibition at 3 µM (ileum; [1]): 8.72%
- inhibition at 10 µM (ileum; [2]): 31.6%

SMILES: C=CCN(C1CCc2ccccc21)C1CC(=O)c2ccccc21 (centres unmarked) [5C6 TR]
- inhibition at 3 µM (trachea; 3 × 10^−6 M): 1.5%
- inhibition at 10 µM (trachea; 10^−5 M): 4.97%
- inhibition at 20 µM (mast cells): 80%

SMILES: O=C1CC(NC2CCc3ccccc32)c2ccccc21 (centres unmarked) [Compound 5C3, 3-(N-1-indanylamino)-indan-1-one]
- Percentage Inhibition of Histamine Release (mast cells): 32.77%
- inhibition at 3 µM (ileum; [1]): 15.1%
- inhibition at 0.3 µM (ileum; [3]): 3.78%
- inhibition at 0.03 µM (ileum; [4]): 0.53%
- inhibition at 10 µM (ileum; [2]): 30%
- inhibition at 1 µM (ileum; [5]): 7.21%
- inhibition at 0.1 µM (ileum; [6]): 2.61%

SMILES: OC1CC(NC2CCc3ccccc32)c2ccccc21 (centres unmarked) [Compound 5C4, 3-(N-1-indanylamino)indan-1-ol]
- inhibition at 20 µM (mast cells): 5.68%
- inhibition at 3 µM (ileum; [1]): 5.08%
- inhibition at 0.3 µM (ileum; [3]): -0.99%
- inhibition at 0.03 µM (ileum; [4]): -0.86%
- inhibition at 10 µM (ileum; [2]): 19.1%
- inhibition at 1 µM (ileum; [5]): 1.15%
- inhibition at 0.1 µM (ileum; [6]): -0.86%

SMILES: CN(C1CCc2ccccc21)C1CC(=O)c2ccccc21 (centres unmarked) [Compound 5C5, 3-(N-methyl-N-1-indanylamino)-indan-1-one]
- inhibition at 20 µM (mast cells): 58.7%
- inhibition at 3 µM (ileum; [1]): 3.56%
- inhibition at 0.3 µM (ileum; [3]): 0.43%
- inhibition at 0.03 µM (ileum; [4]): -0.26%
- inhibition at 10 µM (ileum; [2]): 10.5%
- inhibition at 1 µM (ileum; [5]): 1.56%
- inhibition at 0.1 µM (ileum; [6]): 0.28%

SMILES: O=C1CC(N(Cc2ccccc2)C2CCc3ccccc32)c2ccccc21 (centres unmarked) [Compound 5C7, 3-(N-benzyl-N-1-indanylamino)-indan-1-one]
- inhibition at 20 µM (mast cells): 24.1%
- inhibition at 0.03 µM (ileum): 0.16%
- inhibition at 0.1 µM (ileum): -0.44%
- inhibition at 0.3 µM (ileum): -0.36%
- inhibition at 1 µM (ileum): -1.72%
- inhibition at 3 µM (ileum): 0%
- inhibition at 10 µM (ileum): 2.06%

SMILES: O=C1CC(NC2CCc3ccccc32)c2ccccc21 (centres unmarked) [Compound 5C8, 3-(N-1-indanylamino) -indan-1-one. Hydrochloride]
- Percentage Inhibition of Histamine Release (mast cells; hydrochloride): 14.33%

SMILES: Cc1ccc(S(=O)(=O)N(C2CCc3ccccc32)C2CC(=O)c3ccccc32)cc1 (centres unmarked) [Compound 5C10, N-1-Indanyl-N-3-indan-1-onyl-p-toluenesulfonamide]
- inhibition at 20 µM (mast cells): 40.8%

SMILES: C=CCN(C1CCc2ccccc21)C1CC(=O)c2ccccc21 (centres unmarked) [Compound 5C11, 3-(N-prop-2-enyl-N-1-indanylamino)-indan-1-one hydrochloride]
- Percentage Inhibition of Histamine Release (mast cells; hydrochloride): 90.27%

SMILES: O=C1CC(NC2Cc3ccccc3C2)c2ccccc21 (centres unmarked) [Compound 6C4, 3-(N-2-indanylamino)-indan-1-one]
- Percentage Inhibition of Histamine Release (mast cells): 14.92%
- Percentage Inhibition of CaCl2 Induced Contractions (ileum; [1]): 17.11%
- Percentage Inhibition of CaCl2 Induced Contractions (ileum; [3]): 4.63%
- Percentage Inhibition of CaCl2 Induced Contractions (ileum; [4]): 2.16%
- Percentage Inhibition of CaCl2 Induced Contractions (ileum; [2]): 33.46%
- Percentage Inhibition of CaCl2 Induced Contractions (ileum; [5]): 8.84%
- Percentage Inhibition of CaCl2 Induced Contractions (ileum; [6]): 3.02%

SMILES: O=C1CC(N(Cc2ccccc2)C2Cc3ccccc3C2)c2ccccc21 (centres unmarked) [Compound 6C8, 3-(N-benzyl-N-2-indanylamino)-indan-1-one]
- inhibition at 20 µM (mast cells): 88.6%
- inhibition at 0.03 µM (ileum): 1.97%
- inhibition at 0.1 µM (ileum): 2.94%
- inhibition at 0.3 µM (ileum): 3.26%
- inhibition at 1 µM (ileum): 4.69%
- inhibition at 3 µM (ileum): 11.3%
- inhibition at 10 µM (ileum): 31.1%

SMILES: O=C1CC(NC2Cc3ccccc3C2)c2ccccc21 (centres unmarked) [Compound 6C9, 3-(N-2-indanylamino)indan-1-one. Hydrochloride]
- Percentage Inhibition of Histamine Release (mast cells; hydrochloride): 43.60%
- Percentage Inhibition of CaCl2 Induced Contractions (ileum; 3 × 10^−6 M, guinea pig ileum, DMSO effect subtracted, Hydrochloride): −0.86%
- Percentage Inhibition of CaCl2 Induced Contractions (ileum; 3 × 10^−7 M, guinea pig ileum, DMSO effect subtracted, Hydrochloride): −1.76%
- Percentage Inhibition of CaCl2 Induced Contractions (ileum; 3 × 10^−8 M, guinea pig ileum, DMSO effect subtracted, Hydrochloride): 0.31%
- Percentage Inhibition of CaCl2 Induced Contractions (ileum; 10^−5 M, guinea pig ileum, DMSO effect subtracted, Hydrochloride): 1.58%
- Percentage Inhibition of CaCl2 Induced Contractions (ileum; 10^−6 M, guinea pig ileum, DMSO effect subtracted, Hydrochloride): −2.94%
- Percentage Inhibition of CaCl2 Induced Contractions (ileum; 10^−7 M, guinea pig ileum, DMSO effect subtracted, Hydrochloride): 0.61%

SMILES: C=CCN(C1Cc2ccccc2C1)C1CC(=O)c2ccccc21 (centres unmarked) [Compound 6C12, 3-(N-prop-2-enyl-N-2-indanylamino)-indan-1-one hydrochloride]
- Percentage Inhibition of Histamine Release (mast cells; hydrochloride): 91.35%
